Test [1] concerns 3-deoxy-D-arabino-heptulosonate 7-phosphate synthase. Nature of the test: feedback inhibition of chloroplast DAHP synthase. The class given is biochemical, higher plants. To be noted: higher-plant chloroplasts. An excerpt:
Because L-arogenate regulates aromatic amino acid biosynthesis in the chloroplast by feedback inhibition exerted upon the initial enzyme of aromatic biosynthesis, it provides an excellent point of attack. Application of L-arogenate or an L-arogenate-type compound will cause a serious disturbance of the feedback inhibition mechanism of this crucial metabolic pathway.

In test [2] the test system is DAHP synthase isozymes of higher plants. Nature of the test: inhibition of DAHP synthase isozymes of higher plants. The class given is biochemical. The following applies: two separately compartmented isozymes. The text has this: The early amino acid pathway circuit entails the feedback inhibition of 3-deoxy-D-arabinoheptulosonate 7-P (DAHP) synthase by chorismate. Thus, the DAHP synthase of Xanthomonas offers unique target of vulnerability in nature since an appropriate analog mimic of chorismate produces false feedback inhibition of DAHP synthase in Xanthomonas but not in the higher plant host. […] Step two of the claimed process has thus been completed.
The DAHP synthase of xanthomonads is also sensitive to inhibition by L-tryptophan. […] Thus, analog mimics of L-tryptophan attack a second site within the basic DAHP synthase target of Xanthomonas.

In test [3] the test system is a variety of bacteria, including N. gonorrhoeae. Description: energy drain / PEP depletion in bacteria after EPSP synthase block. The format is cell-based. An excerpt:
The enzymic target of N-(phosphonomethyl) glycine action is not present in mammalian systems, therefore, N-(phosphonomethyl) glycine is not toxic to the human host. Because N-(phosphonomethyl) glycine acts on an enzyme which is present in pathogenic bacteria but not in the human host, this compound could be used as an effective control agent for bacterial pathogens.

Test [4] relates to cyclohexadienyl dehydrogenase. Description: substrate utilization by cyclohexadienyl dehydrogenase. The format is biochemical. An excerpt:
(§1) Therefore, prephenyllactate is an appropriate prephenate analog for the control of phytopathogens.

Test [5] has as its system arogenate dehydrogenase. Description: substrate utilization by arogenate dehydrogenase enzymes. The class given is biochemical.
Text: as §1

Test [6] concerns microbial prephenate dehydrogenase. Description: substrate utilization by microbial prephenate dehydrogenase. The class given is biochemical.
Text: as §1

As for `N[C@@H](CC1(C(=O)O)C=CC(O)C=C1)C(=O)O` (stereo partly drawn) [L-arogenate], the “feedback inhibition of the initial enzyme of aromatic biosynthesis” value in test [1] is “feedback inhibitor”.

Regarding `N[C@@H](Cc1c[nH]c2ccccc12)C(=O)O` [L-tryptophan], the “sensitivity of higher-plant DAHP synthase isozymes to inhibition” value in test [2] was “not affected”.

Regarding `O=C(O)CNCP(=O)(O)O` [N-(phosphonomethyl) glycine], the “drain upon intracellular supplies of PEP” value in test [3] (even at microgram levels, shikimate-3-phosphate accumulates) is reported as “produces a drain upon intracellular supplies of PEP”. For the same compound, the “energy drain from depletion of PEP and ATP” value in test [3] (variety of bacteria, including N. gonorrhoeae) is “severe energy drain”.

For the compound `C=C(O[C@@H]1C=C(C(=O)O)C=C[C@H]1O)C(=O)O` [chorismate], in test [2], the “sensitivity of higher-plant DAHP synthase isozymes to inhibition” value is on record as “neither sensitive to inhibition”.

For `O=C(O)C(O)CC1(C(=O)O)C=CC(O)C=C1` (stereo not drawn) [prephenyllactate, β-(1-carboxyl-4-hydroxy-2,5-cyclohexadien-1-yl) lactic acid], in test [4], the “utilization as substrate by cyclohexadienyl dehydrogenase” value is “as a substrate quite well”. Moreover, the “utilization as substrate by arogenate dehydrogenase enzymes” value in test [5] was “do not use prephenyllactate as a substrate”. Besides, the “utilization as substrate by microbial prephenate dehydrogenase” value in test [6] is reported as “as a substrate quite well”.
